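Following 48 hours of exposure in 96-well plates, responses at five concentrations were used to interpolate endpoints linearly. Definition used: TGI = concentration required for complete inhibition of growth.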

Common to all, as to assay: DTP human tumour cell line panel, 48 h
Assay [1] deals with BT-549 breast.
For assay [2], the system named is CAKI-1 renal.
The test system of assay [3] is COLO 205 colon.
The subject of assay [4] is M14 melanoma.
Assay [5] concerns NCI-H226 lung.
For assay [6], the system named is NCI-H23 lung.
Assay [7] has as its system NCI-H460 lung.
In assay [8] the test system is OVCAR-3 ovarian.
The subject of assay [9] is OVCAR-5 ovarian.
Assay [10] relates to SF-539 CNS.
Assay [11] relates to SK-MEL-2 melanoma.
In assay [12] the test system is SK-MEL-28 melanoma.
Assay [13] concerns UACC-257 melanoma.
The subject of assay [14] is UACC-62 melanoma.

In the case of `Cc1cc(N2CCOCC2)nc2ccc(Cc3ccc4nc(N5CCOCC5)cc(C)c4c3)cc12`, the TGI in assay [1] is more than 100 µM; in assay [2], more than 100 µM; in [3], 26.8 µM; in assay [4] it was more than 100 µM; in [5], more than 100 µM; in assay [6], more than 100 µM. For the same compound, the TGI in [7] is more than 100 µM; in assay [8], more than 100 µM; in [9], more than 100 µM; in assay [10], 71.3 µM; in assay [11], more than 100 µM; in assay [12], more than 100 µM. In addition, the TGI in assay [13] and in assay [14] was more than 100 µM each time.

In the case of `O=C1C=C(c2ccccc2)OC1C1Sc2ccccc2NC1=O` (stereo not given), the TGI is more than 100 µM in assay [1]; more than 100 µM in assay [2]; 18.5 µM in assay [3]; 35.6 µM in assay [4]; more than 83.3 µM in [5]; more than 31.5 µM in assay [6]. Moreover, the TGI in assay [7] was more than 20.9 µM; in [8], 18.9 µM; in assay [9] it was more than 100 µM; in assay [10], more than 100 µM; in assay [11] it was more than 41.1 µM; in assay [12], more than 100 µM. The TGI is more than 24.4 µM in assay [13] and more than 49.3 µM in assay [14].

Regarding `COC(=O)[C@@H]1C[C@@H](O)CN1C(=O)c1ccc([N+](=O)[O-])cc1[N+](=O)[O-]`, the TGI in assay [1], in assay [2], in assay [3], in [4], in [5] and in assay [6] was more than 100 µM in each case. For the same compound, the TGI in assay [7], in [8], in [9], in [10], in assay [11] and in assay [12] was more than 100 µM in each case. Also, the TGI in assay [13] and in assay [14] was more than 100 µM in each case.

`CCN(CC)C1Oc2cc3c(cc2C(c2cc(OC)c(O)c(OC)c2)C1C)OCO3` (stereo not given): the TGI was more than 100 µM in assay [1]; more than 72.9 µM in assay [2]; 31.8 µM in assay [3]; 20.4 µM in assay [4]; 52.3 µM in assay [5]; more than 100 µM in [6]. Further, the TGI in assay [7] is 20.6 µM; in assay [8], 25.9 µM; in [9] it was 21.7 µM; in assay [10], 34.7 µM; in assay [11], more than 95.7 µM; in assay [12], 44.2 µM. For the same compound, the TGI in assay [13] was more than 100 µM; in assay [14], 26.2 µM.

As for `CC(=O)OCC1(C)C(O)CCC2(C)C1CCC1CC3CC12CCC3(O)CO` (stereo not given), the TGI in assay [1], in [2], in assay [3], in [4], in assay [5] and in [6] was more than 100 µM each time. Further, the TGI in assay [7], in assay [8], in [9], in assay [10], in [11] and in assay [12] was more than 100 µM each time. The TGI in assay [13] and in assay [14] was more than 100 µM in each case.

Turning to `Cc1c(C(=O)c2ccccc2)[n+](=O)c2cc(Cl)c(Cl)cc2n1[O-]`, the TGI was determined as 31.5 µM in [1]; 14.1 µM in assay [2]; 33.5 µM in [3]; 7.7 µM in [4]; 7.59 µM in assay [5]; 11.6 µM in assay [6]. Also, the TGI in [7] amounted to 30.9 µM; in assay [8] it was 25 µM; in assay [9] it was 31.8 µM; in assay [10] it was 32.5 µM; in [11] it was 21.3 µM; in assay [12], 29.1 µM. For the same compound, the TGI is 16.5 µM in assay [13] and 25.1 µM in assay [14].

`CC(=O)Nc1cc(Cl)cc(Cl)c1O`: the TGI in [1], in assay [2], in assay [3], in assay [4], in assay [5] and in assay [6] was more than 100 µM in each case. For the same compound, the TGI in [7], in [8], in [9], in [10], in assay [11] and in assay [12] was more than 100 µM each time. Moreover, the TGI in [13] and in assay [14] was more than 100 µM in each case.

For `O=S1SC(=S)C2C=CC=NC21` (stereo not given), the TGI was 33.9 µM in assay [1]; more than 100 µM in assay [2]; 40.3 µM in [3]; 29.6 µM in assay [4]; 56.4 µM in [5]; 43.1 µM in [6]. Moreover, the TGI in assay [7] was 37.8 µM; in assay [8] it was 56.2 µM; in assay [9] it was 28.6 µM; in assay [10], 33.3 µM; in assay [11] it was 36.6 µM; in assay [12], more than 100 µM. The TGI in assay [13] turned out to be 29 µM; in assay [14] it was 40.2 µM.

`CSc1c(C#N)c(=O)n(N)c2c1c(C)nn2-c1ccccc1`: the TGI in assay [1] was more than 100 µM; in assay [2], 43 µM; in assay [3] it was 32.5 µM; in [4] it was more than 100 µM; in [5], 70 µM; in assay [6], 52.7 µM. The TGI in assay [7] was more than 100 µM; in [8] it was 77 µM; in assay [9] it was more than 100 µM; in assay [10] it was 55.5 µM; in assay [11], 63.3 µM; in assay [12], more than 100 µM. In addition, the results for the TGI in [13] and in [14] were 60.9 µM and 75.8 µM, respectively.

With `C=C(C)C1CC[C@@](C)(O)[C@H](C#N)C1` (stereo not given in full), the TGI in [1], in [2], in [3], in assay [4], in assay [5] and in assay [6] was more than 100 µM in each case. Also, the TGI in [7], in [8], in assay [9], in [10], in assay [11] and in assay [12] was more than 100 µM in each case. In addition, the TGI in assay [13] and in [14] was more than 100 µM each time.

Consider `C[N+](C)(C)CC(=O)N/N=C(\Cc1nc2ccc([N+](=O)[O-])cc2[nH]c1=O)C(=O)Nc1nc2ccc([N+](=O)[O-])cc2s1`, for which the TGI in assay [1] is 94.3 µM; in assay [2] it was 92 µM; in assay [3], more than 100 µM; in assay [4] it was more than 100 µM; in [5], more than 100 µM; in [6], more than 100 µM. For the same compound, the TGI in assay [7], in assay [8], in assay [9], in assay [10], in assay [11] and in assay [12] was more than 100 µM each time. The TGI in assay [13] and in [14] was more than 100 µM each time.

In the case of `COc1ccc(N2C(=O)C(Cl)C2c2cc3cc(Br)ccc3nc2Cl)cc1` (stereo not given), the TGI in assay [1] was found to be 9.11 µM; in assay [2], 18.9 µM; in [3], 9.11 µM; in assay [4], 11 µM; in assay [5], 13.2 µM; in assay [6] it was 15.6 µM. For the same compound, the TGI in assay [7] was 12.2 µM; in assay [8], more than 25 µM; in [9], more than 25 µM; in assay [10], 10 µM; in assay [11] it was 11.1 µM; in assay [12], more than 25 µM. For the same compound, the TGI in [13] is 11.9 µM; in assay [14] it was 8.86 µM.

In the case of `C=C(Cl)/C(=C\Cl)CCC(Cl)C(C)C` (stereo not given) (tested in a mixture with another compound), the TGI in assay [1] was found to be 29.3 µM; in assay [2], 32.2 µM; in assay [3], 54.6 µM; in assay [4], 32.7 µM; in assay [5], 47.9 µM; in assay [6] it was 28.2 µM. Moreover, the total growth inhibition concentration (TGI) in [7] stood at 32.9 µM; in assay [8], 30.1 µM; in assay [9], 34.8 µM; in assay [10], 32.2 µM; in [11] it was 27.1 µM; in assay [12] it was 34.8 µM. Further, the figures for the TGI in assay [13] and in assay [14] were 27.2 µM and 25.3 µM, respectively.

As for `CCCC(=O)OCC1OC(n2cc(F)c(=O)[nH]c2=O)CC1O` (stereo not given), the TGI in assay [1] was more than 10 µM; in [2], more than 10 µM; in [3], more than 10 µM; in assay [4] it was more than 10 µM; in [5], more than 10 µM; in [6], 1.66 µM. The TGI is more than 10 µM in [7]; more than 10 µM in assay [8]; more than 10 µM in assay [9]; 0.247 µM in [10]; more than 10 µM in assay [11]; more than 10 µM in assay [12]. For the same compound, the TGI in [13] and in assay [14] was more than 10 µM throughout.

Regarding `CCOC(=O)c1ncn(CCc2ccc(Cl)cc2)c1C`, the TGI in [1], in assay [2], in [3], in assay [4], in assay [5] and in [6] was more than 100 µM in each case. Further, the TGI in assay [7], in assay [8], in assay [9], in assay [10], in assay [11] and in assay [12] was more than 100 µM each time. Moreover, the TGI in assay [13] and in assay [14] was more than 100 µM in each case.

In the case of `CCO/C(O)=C(/C(=N)N1CCOCC1)C(=O)NC(C)C`, the TGI in assay [1], in assay [2], in [3], in assay [4], in assay [5] and in assay [6] was more than 100 µM throughout. Besides, the concentration for total growth inhibition (TGI) in assay [7], in [8], in assay [9], in [10], in assay [11] and in [12] was more than 100 µM throughout. The TGI in [13] and in assay [14] was more than 100 µM throughout.

Take `CN(C)c1ccc(C=Nc2ccc(-c3nc4ccccc4s3)cc2)cc1`: the TGI in assay [1] is more than 100 µM; in assay [2] it was more than 100 µM; in assay [3], 62.3 µM; in assay [4], more than 100 µM; in assay [5], more than 100 µM; in assay [6] it was 97.6 µM. The TGI in assay [7] is 93.2 µM; in assay [8], 57.6 µM; in assay [9], more than 100 µM; in assay [10] it was more than 100 µM; in assay [11] it was 58.9 µM; in [12], more than 100 µM. The figures for the TGI in assay [13] and in assay [14] were 82.8 µM and 31.7 µM, respectively.

For the compound `C=C1c2nc3ccccc3n2C=C(c2ccccc2)N1c1ccc(Cl)cc1`, the concentration for total growth inhibition (TGI) was more than 66.2 µM in [1]; 21.6 µM in assay [2]; more than 100 µM in assay [3]; more than 75.2 µM in [4]; more than 87.1 µM in assay [5]; 79.7 µM in assay [6]. Further, the TGI in [7] is more than 49.4 µM; in assay [8], 59.5 µM; in assay [9] it was more than 100 µM; in [10] it was 20.9 µM; in assay [11], more than 100 µM; in assay [12], more than 100 µM. The TGI in assay [13] and in [14] was more than 100 µM throughout.

Turning to `COc1ccccc1-n1nnc2c(N)nc(N)nc21`, the TGI in assay [1], in [2], in [3], in assay [4], in assay [5] and in [6] was more than 100 µM each time. Further, the TGI in assay [7], in assay [8], in [9], in assay [10], in [11] and in assay [12] was more than 100 µM throughout. Further, the TGI in assay [13] and in [14] was more than 100 µM throughout.

Regarding `Cc1ccc(Sc2ccccc2C23OC(C)(C4C(=O)N(c5ccccc5)C(=O)C42)N(C)C3=O)cc1` (stereo not given), the TGI in [1], in assay [2], in assay [3], in assay [4], in assay [5] and in assay [6] was more than 100 µM throughout. The TGI in assay [7], in assay [8], in assay [9], in assay [10], in assay [11] and in [12] was more than 100 µM in each case. Further, the TGI in [13] and in [14] was more than 100 µM throughout.

The values are drawn from PubChem BioAssay (NCI).
